Target: T1, hFXR (Homo sapiens, UniProt Q96RI1)
T1 construct: expressed in transfected cells; host or cells: CV-1 cells
T1 sequence (Q96RI1 1-486): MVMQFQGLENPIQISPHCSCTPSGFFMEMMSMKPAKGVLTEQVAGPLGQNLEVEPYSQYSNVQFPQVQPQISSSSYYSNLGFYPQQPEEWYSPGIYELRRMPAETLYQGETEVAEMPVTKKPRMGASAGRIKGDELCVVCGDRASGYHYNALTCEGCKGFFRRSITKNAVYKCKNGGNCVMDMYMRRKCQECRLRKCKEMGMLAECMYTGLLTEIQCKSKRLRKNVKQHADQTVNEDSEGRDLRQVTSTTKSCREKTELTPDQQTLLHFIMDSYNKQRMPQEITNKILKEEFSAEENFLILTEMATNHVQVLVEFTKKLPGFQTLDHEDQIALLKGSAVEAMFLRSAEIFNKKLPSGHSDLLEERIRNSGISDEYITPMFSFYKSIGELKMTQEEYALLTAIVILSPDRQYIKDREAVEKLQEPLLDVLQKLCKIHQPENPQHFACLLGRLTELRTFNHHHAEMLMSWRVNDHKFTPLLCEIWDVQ
T1 sequence (P19793 1-462 partner): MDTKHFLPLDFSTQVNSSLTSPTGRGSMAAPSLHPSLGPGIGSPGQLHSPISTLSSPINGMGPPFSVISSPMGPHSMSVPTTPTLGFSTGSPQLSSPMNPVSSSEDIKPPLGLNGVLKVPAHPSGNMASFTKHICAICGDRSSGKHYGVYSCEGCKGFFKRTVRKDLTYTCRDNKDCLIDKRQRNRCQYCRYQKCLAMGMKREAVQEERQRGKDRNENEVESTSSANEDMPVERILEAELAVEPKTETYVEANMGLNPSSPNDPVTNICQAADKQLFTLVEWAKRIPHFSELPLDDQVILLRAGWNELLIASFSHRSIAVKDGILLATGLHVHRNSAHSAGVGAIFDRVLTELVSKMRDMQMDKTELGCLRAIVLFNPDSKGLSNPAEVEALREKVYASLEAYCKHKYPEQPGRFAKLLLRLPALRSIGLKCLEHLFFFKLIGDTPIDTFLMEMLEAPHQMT
Assay: In Vitro FXR Assay (TK): TK-ECRE-luc reporter in transfected CV-1 cells
Type: cell-based
Details: 18 hrs, luminescence, maximum efficacy of <25% of the Fexarmine control classified as '+'
Summary of the method: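 Cells are seeded in charcoal double-stripped FBS medium, transfected overnight with FXR/RXR expression and ECRE-driven luciferase reporter plasmids, then treated with serially diluted compounds for 18 h. Lysates are measured for luciferase light output.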

| Structure (SMILES) | EC50 [nM] |
| --- | --- |
| COc1ccc([C@H]2CC[C@H](CN(c3cc(-c4cnn(C5CC5)c4)ccn3)C(=O)[C@H]3CC[C@H](OC(=O)N4CC(O)C4)CC3)CC2)cc1C#N [Compound 7.21, trans-4-(((trans-4-(3-Cyano-4-methoxyphenyl)cyclohexyl)methyl)(4-(1-cyclopropyl-1H-pyrazol-4-yl)pyridin-2-yl)carbamoyl)cyclohexyl 3-hydroxyazetidine-1-carboxylate] | ≤ 250 |
| COc1ccc([C@H]2CC[C@H](CN(c3cc(-c4cnn(C5CC5)c4)ccn3)C(=O)[C@H]3CC[C@H](OC(=O)N4CC(O)C4)CC3)CC2)nc1C [Compound 7.24, trans-4-((4-(1-Cyclopropyl-1H-pyrazol-4-yl)pyridin-2-yl)((trans-4-(5-methoxy-6-methylpyridin-2-yl)cyclohexyl)methyl)carbamoyl)cyclohexyl 3-hydroxyazetidine-1-carboxylate] | ≤ 250 |
| COc1ccc([C@H]2CC[C@H](CN(c3cccc(-c4cnn(C5CC5)c4)c3)C(=O)[C@H]3CC[C@H](OC(=O)N4CC(CO)C4)CC3)CC2)cc1C [Compound 7.28, trans-4-((3-(1-Cyclopropyl-1H-pyrazol-4-yl)phenyl)((trans-4-(4-methoxy-3-methylphenyl)cyclohexyl)methyl)carbamoyl)cyclohexyl 3-(hydroxymethyl)azetidine-1-carboxylate] | ≤ 250 |
| COc1ccc([C@H]2CC[C@H](CN(c3cccc(-c4cnn(C5CC5)c4)c3)C(=O)[C@H]3CC[C@H](OC(=O)N4CC[S+]([O-])CC4)CC3)CC2)cc1C [Compound 7.29, trans-4-((3-(1-Cyclopropyl-1H-pyrazol-4-yl)phenyl)((trans-4-(4-methoxy-3-methylphenyl)cyclohexyl)methyl)carbamoyl)cyclohexyl thiomorpholine-4-carboxylate 1-oxide] | ≤ 250 |
| COc1ccc([C@H]2CC[C@H](CN(c3cccc(-c4cnn(C5CC5)c4)c3)C(=O)[C@H]3CC[C@H](OC(=O)N4CCS(=O)(=O)CC4)CC3)CC2)cc1C [Compound 7.30, trans-4-((3-(1-Cyclopropyl-1H-pyrazol-4-yl)phenyl)((trans-4-(4-methoxy-3-methylphenyl)cyclohexyl)methyl)carbamoyl)cyclohexyl thiomorpholine-4-carboxylate1,1-dioxide] | ≤ 250 |
| COc1ccc([C@H]2CC[C@H](CN(c3cccc(-c4cnn(C5CC5)c4)c3)C(=O)[C@H]3CC[C@H](OC(=O)N4CCC4)CC3)CC2)cc1C [Compound 7.31, trans-4-((3-(1-Cyclopropyl-1H-pyrazol-4-yl)phenyl)((trans-4-(4-methoxy-3-methylphenyl)cyclohexyl)methyl)carbamoyl)cyclohexyl azetidine-1-carboxylate] | ≤ 250 |
| COc1ccc([C@H]2CC[C@H](CN(c3cccc(-c4cnn(C5CC5)c4)c3)C(=O)[C@H]3CC[C@H](OC(=O)N4CC(CN(C)C)C4)CC3)CC2)cc1C [Compound 7.32, trans-4-((3-(1-Cyclopropyl-1H-pyrazol-4-yl)phenyl)((trans-4-(4-methoxy-3-methylphenyl)cyclohexyl)methyl)carbamoyl)cyclohexyl 3-((dimethylamino)methyl)azetidine-1-carboxylate] | ≤ 250 |
| COc1ccc([C@H]2CC[C@H](CN(c3cccc(-c4cnn(C5CC5)c4)c3)C(=O)[C@H]3CC[C@H](OC(=O)N4CC(O)C4)CC3)CC2)nc1C#N [Compound 7.33, trans-4-(((trans-4-(6-Cyano-5-methoxypyridin-2-yl)cyclohexyl)methyl)(3-(1-cyclopropyl-1H-pyrazol-4-yl)phenyl)carbamoyl) cyclohexyl 3-hydroxyazetidine-1-carboxylate] | ≤ 250 |
| COC(=O)C1CN(C(=O)O[C@H]2CC[C@H](C(=O)N(C[C@H]3CC[C@H](c4ccc(OC)c(C)c4)CC3)c3cccc(-c4cnn(C5CC5)c4)c3)CC2)C1 [Compound 7.34, 1-(trans-4-((3-(1-Cyclopropyl-1H-pyrazol-4-yl)phenyl)((trans-4-(4-methoxy-3-methylphenyl)cyclohexyl)methyl)carbamoyl)cyclohexyl) 3-methylazetidine-1,3-dicarboxylate] | ≤ 250 |
| COc1ccc([C@H]2CC[C@H](CN(c3cccc(-c4cnn(C5CC5)c4)c3)C(=O)[C@H]3CC[C@H](OC(=O)N4CC(N(C)C(=O)OC(C)(C)C)C4)CC3)CC2)cc1C [Compound 7.36, trans-4-((3-(1-Cyclopropyl-1H-pyrazol-4-yl)phenyl)((trans-4-(4-methoxy-3-methylphenyl)cyclohexyl)methyl)carbamoyl)cyclohexyl 3-((tert-butoxycarbonyl)(methyl)amino) azetidine-1-carboxylate] | ≤ 250 |

The next lines start with the values.

| EC50 [nM] | Structure (SMILES) |
| --- | --- |
| ≤ 250 | COc1ccc([C@H]2CC[C@H](CN(c3cc(-c4cnn(C(C)C)c4)ccn3)C(=O)[C@H]3CC[C@H](OC(=O)N4CC(O)C4)CC3)CC2)cc1C#N [Compound 7.22, trans-4-(((trans-4-(3-Cyano-4-methoxyphenyl)cyclohexyl)methyl)(4-(1-isopropyl-1H-pyrazol-4-yl)pyridin-2-yl)carbamoyl)cyclohexyl 3-hydroxyazetidine-1-carboxylate] |
| ≤ 250 | COc1ncc([C@H]2CC[C@H](CN(c3cccc(-c4cnn(C5CC5)c4)c3)C(=O)[C@H]3CC[C@H](OC(=O)N4CC(O)C4)CC3)CC2)cc1Cl [Compound 7.23, trans-4-(((trans-4-(5-Chloro-6-methoxypyridin-3-yl)cyclohexyl)methyl)(3-(1-cyclopropyl-1H-pyrazol-4-yl)phenyl)carbamoyl) cyclohexyl 3-hydroxyazetidine-1-carboxylate] |
| ≤ 250 | COc1ncc([C@H]2CC[C@H](CN(c3cccc(-c4cnn(C5CC5)c4)c3)C(=O)[C@H]3CC[C@H](OC(=O)N4CC(O)C4)CC3)CC2)cc1C [Compound 7.25, trans-4-((3-(1-Cyclopropyl-1H-pyrazol-4-yl)phenyl)((trans-4-(6-methoxy-5-methylpyridin-3-yl)cyclohexyl)methyl)carbamoyl)cyclohexyl 3-hydroxyazetidine-1-carboxylate] |
| ≤ 250 | COCC1CN(C(=O)O[C@H]2CC[C@H](C(=O)N(C[C@H]3CC[C@H](c4ccc(OC)c(C)c4)CC3)c3cccc(-c4cnn(C5CC5)c4)c3)CC2)C1 [Compound 7.26, trans-4-((3-(1-Cyclopropyl-1H-pyrazol-4-yl)phenyl)((trans-4-(4-methoxy-3-methylphenyl)cyclohexyl)methyl)carbamoyl)cyclohexyl 3-(methoxymethyl)azetidine-1-carboxylate] |
| ≤ 250 | COc1ccc([C@H]2CC[C@H](CN(c3cccc(-c4cnn(C5CC5)c4)c3)C(=O)[C@H]3CC[C@H](OC(=O)N4CC(N(C)C)C4)CC3)CC2)cc1C [Compound 7.27, trans-4-((3-(1-Cyclopropyl-1H-pyrazol-4-yl)phenyl)((trans-4-(4-methoxy-3-methylphenyl)cyclohexyl)methyl)carbamoyl)cyclohexyl 3-(dimethylamino)azetidine-1-carboxylate] |
| ≤ 250 | COc1ccc([C@H]2CC[C@H](CN(c3cccc(-c4cnn(C5CC5)c4)c3)C(=O)[C@H]3CC[C@H](OC(=O)N4CC(C(=O)O)C4)CC3)CC2)cc1C [Compound 7.35, 1-(((trans-4-((3-(1-Cyclopropyl-1H-pyrazol-4-yl)phenyl)((trans-4-(4-methoxy-3-methylphenyl)cyclohexyl)methyl)carbamoyl)cyclohexyl)oxy)carbonyl)azetidine-3-carboxylic acid] |
